Measured values published in patent EP1068199B1, “N-ARYLOXYETHYL-INDOLY-ALKYLAMINES FOR THE TREATMENT OF DEPRESSION” (Wyeth, priority 1998, dated 1999).

Experiments:
serotonin transporter = target: T1, serotonin transporter (Rattus norvegicus, UniProt P31652); test: Serotonin transporter affinity, 3H-paroxetine binding to frontal cortical membranes; design: species or system male Sprague-Dawley rats; conditions: read-out: ST (Ki, nM,)
T1 construct: frontal cortical membranes prepared from male Sprague-Dawley rats; from tissue; host or cells: rat frontal cortex membranes (male Sprague-Dawley)
T1 sequence (P31652 whole entry): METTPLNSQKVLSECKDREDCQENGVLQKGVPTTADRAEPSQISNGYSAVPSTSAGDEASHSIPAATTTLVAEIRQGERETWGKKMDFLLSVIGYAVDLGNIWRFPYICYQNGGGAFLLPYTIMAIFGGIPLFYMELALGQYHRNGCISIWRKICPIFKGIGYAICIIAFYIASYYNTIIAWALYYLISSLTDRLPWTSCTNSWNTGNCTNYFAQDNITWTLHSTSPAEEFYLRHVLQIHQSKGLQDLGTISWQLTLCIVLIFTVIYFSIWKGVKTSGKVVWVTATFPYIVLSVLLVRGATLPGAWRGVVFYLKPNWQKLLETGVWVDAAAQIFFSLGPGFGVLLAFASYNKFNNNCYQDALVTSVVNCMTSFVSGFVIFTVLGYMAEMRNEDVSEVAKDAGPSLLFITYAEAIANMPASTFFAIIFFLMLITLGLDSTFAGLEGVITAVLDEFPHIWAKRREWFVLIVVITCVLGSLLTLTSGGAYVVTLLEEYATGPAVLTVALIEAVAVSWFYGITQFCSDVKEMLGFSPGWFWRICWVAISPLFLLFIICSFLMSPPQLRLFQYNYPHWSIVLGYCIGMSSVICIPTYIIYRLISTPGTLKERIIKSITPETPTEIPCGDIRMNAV
Experimental: Briefly, frontal cortical membranes prepared from male Sprague-Dawley rats were incubated with ^3H-paroxetine (0.1 nM) for 60 min at 25°C. […] All reactions are terminated by the addition of ice cold Tris buffer followed by rapid filtration using a Tom Tech filtration device to separate bound from free ^3H-paroxetine.

5-HT1A cloned receptor = target: T2, 5-HT1A cloned receptor (Homo sapiens, UniProt P08908); test: [35S]-GTPγS binding assay on 5-HT1A cloned receptor membrane fragments; type: biochemical; conditions: maximum agonist response defined by excess 8-OH-DPAT
T2 construct: expressed in transfected cells
T2 sequence (P08908 1-422): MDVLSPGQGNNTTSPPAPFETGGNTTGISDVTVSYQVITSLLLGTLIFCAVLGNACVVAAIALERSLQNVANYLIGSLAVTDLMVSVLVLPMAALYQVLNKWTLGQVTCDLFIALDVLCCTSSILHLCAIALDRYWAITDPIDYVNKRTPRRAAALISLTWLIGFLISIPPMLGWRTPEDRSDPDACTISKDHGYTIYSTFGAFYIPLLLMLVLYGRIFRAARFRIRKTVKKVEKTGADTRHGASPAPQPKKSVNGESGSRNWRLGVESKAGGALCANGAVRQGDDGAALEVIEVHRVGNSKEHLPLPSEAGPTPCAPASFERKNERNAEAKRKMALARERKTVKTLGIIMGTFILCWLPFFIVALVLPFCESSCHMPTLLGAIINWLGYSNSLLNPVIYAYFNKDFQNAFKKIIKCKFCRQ
Experimental: When needed, membranes were rapidly thawed, centrifuged at 40,000 x g for 10 minutes and resuspended at 4 °C for 10 minutes in assay buffer (25 mM HEPES, 3 mM MgCl2, 100 mM NaCI, 1 mM EDTA, 10 uM GDP, 500 mM DTT, pH 8.0). These membranes were then incubated for 30 min at 30 °C with [^35S]GTPgS (1 nM) in the presence of vehicle, test compound (one to eight concentrations), or excess 8-OH-DPAT to define maximum agonist response. All reactions are terminated by the addition of ice cold Tris buffer followed by rapid filtration using a Tom Tech® filtration device to separate bound from free [^35S]GTPgS.

[1] = target: T3, human 5-HT1A receptor subtype (Homo sapiens, UniProt P08908); test: 5-HT1A receptor binding, [3H]8-OH-DPAT competition on h5-HT1A.CHO cell membranes; conditions: [3H]8-OH-DPAT 1.5 nM
T3 construct: expressed in transfected cells
T3 sequence (P08908 1-422): T2 sequence (P08908 1-422)
Experimental: A stable Chinese hamster ovary cell line expressing the human 5-HT1A receptor subtype (h5-HT1A.CHO cells) was employed throughout this study. Cells were maintained in DMEM supplemented with 10% fetal calf serum, non-essential amino acids and penicillin/ streptomycin.
Cells were grown to 95-100% confluency as a monolayer before membranes were harvested for binding studies. Cells were gently scraped from the culture plates, transferred to centrifuge tubes, and washed twice by centrifugation (2000 rpm for 10 min., 4°C) in buffer (50 mM Tris; pH 7.5). The resulting pellets were aliquoted and placed at -80°C. On the day of assay, the cells were thawed on ice, and resuspended in buffer. Studies were conducted using [^3H]8-OH-DPAT as the radioligand. The binding assay was performed in 96 well microtiter plates in a final total volume of 250 µL of buffer. […] Non-specific binding was determined in the presence of 10 µM 5HT. Saturation analysis was conducted by using [^3H]8-OH-DPAT at concentrations ranging from 0.3-30 nM. Following a 30 minute incubation at room temperature, the reaction was terminated by the addition of ice cold buffer and rapid filtration using a M-96 Brandel Cell Harvester (Gaithersburg, MD) through a GF/B filter presoaked for 30 minutes in 0.5% polyethyleneimine.

**Q.** Which results are given for `O=c1[nH]c2cccc(OCCNCCCc3c[nH]c4ccccc34)c2[nH]1` [Example 2, 4-{2-[3-(1H-Indol-3-yl)-propylamino]-ethoxy}-1,3-dihydrobenzoimidazole-2-one]?
**A.** Ki (serotonin transporter): 2.09 nM; Emax (5-HT1A cloned receptor): 98.5%; Ki [1]: 3.17 nM

**Q.** Which results are given for `O=C1Cc2c(OCCNCCCc3c[nH]c4ccccc34)ccc(F)c2N1` [Example 6, 7-Fluoro-4-{2-[3-(1H-indol-3-yl)-propylamino]-ethoxy}-1,3-dihydro-indol-2-one]?
**A.** Ki (serotonin transporter): 12 nM; Emax (5-HT1A cloned receptor): 49.9%; Ki [1]: 39.1 nM

**Q.** What does the source list for `S=c1[nH]c2cccc(OCCNCCCc3c[nH]c4ccccc34)c2[nH]1` [Example 3, 4-{2-[3-(1H-Indol-3-yl)-propylamino]-ethoxy}-1,3-dihydrobenzoimidazole-2-thione]?
**A.** Ki (serotonin transporter): 21 nM; Ki [1]: 7.75 nM
